One data set addresses cytochrome bc1 (Bos taurus, UniProt P00157). The following applies: cited from earlier work.
Data set [1] is described as follows: Stability in plasma. The format is in vitro ADME, mouse. The following applies: for stability: 37° C., 60 min. The procedure:
(§1) For analysis of samples, two volumes of cold methanol-acetonitrile (50:50, v/v) were added to portions of plasma, culture medium, or cell extract. The preparations were mixed and then centrifuged to obtain clear supernatants, which were dried at room temperature by compressed air. The residues were dissolved in the mobile phase, and a portion was injected onto the HPLC column.
(§2) The HPLC equipment consisted of a Hewlett Packard 1050 ChemStation with a fluorescence detector (Agilent 100 series). […] The mobile phase was methanol:ammonium acetate buffer (87:13 v/v; 0.2 M; pH 5.8, adjusted with HCl). The flow rate was 1 ml/min. The column elute was monitored fluorometrically at an excitation wavelength of 232 nm and an emission wavelength of 418 nm. The amounts of test compounds present in samples were determined from the peak areas.
(§3) Samples of mouse, rat, dog, and human plasma were incubated at 37° C. with and without addition of NaF (2.5 mg/ml) and EDTA (1 mg/ml). To these preparations, 2-OMe antimycin A1, 2-OMe antimcyin A2, 2-OMe antimycin A3, or 2-OMe antimycin A5, dissolved in methanol, was added to final concentrations of 500 ng/ml. Portions of plasma, taken at selected times after addition of the 2-OMe antimycin analog, were extracted and analyzed.
(§4) Similarly, the stability of 2-OMe antimycin A1, 2-OMe antimycin A2, […] in the plasma from mice and humans was evaluated at −80° C. From these preparations, portions were analyzed immediately; other portions were stored at -80° C. and analyzed after 1, 2, and 4 weeks.

Data set [2] in a line: Stability in plasma. The format is in vitro ADME, rat. As to conditions: 37° C., 60 min, presence of NaF/EDTA. On the procedure:
as §1, §2, §3

Data set [3] can be described thus: Stability in plasma. The format is in vitro ADME, dog. As to conditions: 37° C., 60 min; for stability: presence of NaF/EDTA. The procedure:
as §1, §2, §3

Data set [4] in a line: Stability in plasma. The format is in vitro ADME, human. The following applies: for stability: 37° C., 60 min. The procedure:
as §1, §2, §3, §4

Data set [5] is described as follows: Pharmacokinetic evaluation in Fischer 344 rats. The format is in vivo, rat. As to conditions: intravenous 0.25 mg/kg; for amount detectable in plasma: 2 hr after dosing; for amounts in the urine, livers, or kidneys: 24 hr after dosing. On the procedure:
Male Fischer 344 rats (five/group) were dosed via a lateral tail vein with either 2-OMe-A1 or 2-OMe-A3 (0.25 mg/kg) administered as a 1-min intravenous push. The dosing vehicle was the same as that used for mice. The dosing volume was 1.3 ml/kg. Blood samples were collected and analyzed. Further, samples of plasma, urine, livers, and kidneys were collected from rats kept in metabolism cages for 24 hr. To retard the breakdown of the test compounds, NaF+EDTA was present in the tubes used for collecting blood and urine and was added to tissue homogenates.
Pharmacokinetic values were derived with WinNonlin® software (Mountain View, Calif.).

Another data set deals with T1, Bcl-xL(ΔC) WT (Homo sapiens, UniProt Q07817).
T1 construct: inferred from Ni-NTA purification and the pET22b(+) NdeI/XhoI cloning); made in house; host or cells: Escherichia coli BL21(DE3) carrying pUB520
T1 sequence (Q07817 1-211 limits assumed, stated change not applied): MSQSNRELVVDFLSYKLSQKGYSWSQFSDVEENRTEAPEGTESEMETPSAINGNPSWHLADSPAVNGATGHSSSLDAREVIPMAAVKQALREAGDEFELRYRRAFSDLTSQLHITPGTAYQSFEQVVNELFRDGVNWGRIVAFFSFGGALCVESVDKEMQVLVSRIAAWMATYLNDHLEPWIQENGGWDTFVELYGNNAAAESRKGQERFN
As to the kind of experiment: Pore-forming activity, calcein release from liposomes. The format is biochemical. Summed up: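 Bcl-xL(ΔC) protein (500 nM) was added to calcein-loaded 60:40 DOPC/DOPG LUVs (60 μM lipid) in 100 mM KCl, 10 mM KOAc, pH 5.0. Fluorescence was read at 490/520 nm, with kinetics at 37 °C and dose responses at room temperature. BH3 peptides were preincubated 5 min with protein; release was expressed as % of Triton X-100 lysis.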

In data set [6] the test system is mitochondria with normal levels of Bcl-xL expression. The experiment in a line: JC-1 membrane potential of isolated mitochondria. More on the design: species or system murine. On the procedure:
Isolated mitochondria were loaded with JC-1 prior to treatment, and mitochondrial labeling was determined using FACS. […] Antimycin A-treated mitochondria with high levels of Bcl-xL had lower levels of JC-1 staining than parallel samples treated with CCCP. Uncoupled mitochondria still retain a significant Donnan potential because of trapped anionic species and it is likely that antimycin-induced PT and/or swelling of mitochondria led to a further reduction of this residual potential.
As observed for the parent compound, antimycin A3, mitochondria with normal levels of BCl-xL expression were not affected by the 2-methoxy analog.

The nature of a further data set: S9 metabolism. As to conditions: pH 7.4. The format is in vitro ADME, human. From the text: All chemicals and solvents used for sample preparation and HPLC analysis were analytical grade. Acetonitrile, methanol, and phosphoric acid were purchased from Fisher Scientific (Atlanta, Ga.). Hepatic S9 fractions from male CD2F1 mice, male Sprague Dawley rats, male dogs, and male humans were purchased from In Vitro Technologies (Boston, Mass.). The National Cancer Institute provided samples of the test compounds and male CD2F1 mice. Fischer 344 rats with implanted jugular cannulas were obtained from Charles River Laboratories (Cambridge, Mass.). All animal use and care procedures were approved by the Institutional Committee on Animal Use and Care at the University of Alabama at Birmingham and conformed to the guidelines found in Guide for the Care and Use of Laboratory Animals, National Academy Press, 1996.
To evaluate metabolism of the test compounds by S9 fractions from various species, reaction systems maintained at 37° C. contained 2-OMe-A3 (500 ng/ml) and S9 (1 mg protein/ml) in 100 mM Tris buffer (pH 7.4). At selected times, triplicate portions of the mixtures were removed and processed for analysis, as described above.

Where two headings read alike, the source gives them in different places.

With 2-methoxy antimycin A [2-OMeA], the “reduction of oxidative phosphorylation inhibitory activity at complex III” value on cytochrome bc1 (relative to antimycin A) is reported as 1000 fold.

The AUC is concentration integrated over time. By Cmax is commonly meant the highest concentration seen after dosing. Usually MRT stands for the average time that molecules of a dose stay in the body. Regarding `CCCCCC[C@H]1C(=O)O[C@H](C)[C@H](NC(=O)c2cccc(NC=O)c2OC)C(=O)O[C@@H](C)[C@@H]1OC(=O)CC(C)C` [2-OMeA1, 2-methoxy antimycin A1], the stability result is recorded as “substantially stable” in “Stability in plasma [1]” (presence of NaF/EDTA), “substantially stable” in the data set “Stability in plasma [2]”, “unstable” in the data set “Stability in plasma [3]” and “moderately stable” in “Stability in plasma [4]” (presence of NaF/EDTA). Besides, the “amounts remaining after 4 weeks” value in the data set “Stability in plasma [1]” (-80° C., presence of NaF/EDTA) amounted to 96%; in “Stability in plasma [1]” (−80° C., absence of NaF/EDTA) it was 78%; in “Stability in plasma [4]” (-80° C., presence of NaF/EDTA), 93%; in the data set “Stability in plasma [4]” (−80° C., absence of NaF/EDTA), 86%. In addition, the added amount remaining in the data set “Stability in plasma [3]” (absence of NaF/EDTA, 500 ng/ml) worked out at 61%. Moreover, the “amount detectable in plasma” value in data set [5] is “little or no”. In addition, the “amounts in the urine, livers, or kidneys” value in [5] is on record as “little or no detectable amounts”. In [5], the exposure (AUC) came out at 47 ng·h/mL. In [5], this compound yielded a peak concentration (Cmax) of 970 ng/mL. Besides, in [5], the MRT is given as 3.3 min. Further, the T1/2 in data set [5] is listed as 2.3 min. In data set [5], this compound registered a Vss of 0.29 mL/g. Moreover, the “effect on Bcl-xL pore-forming activity” value on Bcl-xL(ΔC) WT is reported as “inhibited”.

The half-life is how long it takes for the measured level to halve. A high value points to slow decline. As to `CCCC[C@H]1C(=O)OC(C)[C@H](NC(=O)c2cccc(NC=O)c2OC)C(=O)O[C@@H](C)C1OC(=O)CC(C)C` (stereo partly shown) [2-OMeA3, Antimycin A3 methyl ether], in data set [6], the “mitochondrial depolarization (JC-1)” value is on record as “not affected”. In addition, the stability result is “notable decreases in concentration” in the data set “Stability in plasma [1]” (presence of NaF/EDTA), “largely stable” in “Stability in plasma [2]”, “largely stable” in “Stability in plasma [3]” and “notable decreases in concentration” in the data set “Stability in plasma [4]” (presence of NaF/EDTA). Besides, the “amounts remaining after 4 weeks” value in the data set “Stability in plasma [1]” (-80° C., presence of NaF/EDTA) is reported as 90%; in the data set “Stability in plasma [1]” (−80° C., absence of NaF/EDTA) it was 45%; in the data set “Stability in plasma [4]” (-80° C., presence of NaF/EDTA), 95%; in “Stability in plasma [4]” (−80° C., absence of NaF/EDTA) it was 73%. Further, the half-life entry in the data set “S9 metabolism” (500 ng/ml, 37° C.) was “only slightly less than that for the control”; in [5] (male, Fischer 344, rat, plasma) it was 1 min. Besides, the half-life at 2000 ng/ml in the data set “S9 metabolism” (male, human, hepatic S9 fraction, 2000 ng/ml) is ~10 min. Besides, the “amount detectable in plasma” value in [5] is listed as “little or no”. Further, the “amounts in the urine, livers, or kidneys” value in [5] is listed as “little or no detectable amounts”. Further, the AUC in data set [5] (male, Fischer 344, rat, plasma, read-out: AUC) was 18 ng·h/mL. Besides, the peak concentration (Cmax) in data set [5] (male, Fischer 344, rat, plasma, read-out: Cmax) came to 920 ng/mL. In [5] (male, Fischer 344, rat, plasma, read-out: MRT (converted)), the MRT is 1.4 min. Moreover, the Vd in data set [5] (male, Fischer 344, rat, plasma, read-out: Vss) came out at 0.37 L/kg. Moreover, the “activity as an inhibitor of cytochrome bc1” value on cytochrome bc1 is “inactive”.
